System: C57BL/6J mice
Experiment: Blood glucose after oral load of glucose together with amino acid or peptide
Assay type: in vivo
Conditions: for Blood glucose levels in mice loaded with glucose: non-diabetic mice, glucose 2 mg/g bw and peptide 1 mg/g bw orally
Description: An experiment was performed in adult male C57BL/6J mice purchased from Jackson Lab (Bar Harbor, Me.). Fasted mice were given glucose (2 mg/g body weight, diamond line in FIG. 1, n=10) or glycine (0.35 mg/g bw, square line in FIG. 1, n=10) and glucose by gavaging. Blood glucose was measured at 0, 30, 60, 90, and 120 min after giving glucose.
An experiment was performed in adult male C57BL/6J mice purchased from Jackson Lab. In the control group (diamond line in FIG. 13, n=10), glucose was orally administered at dose of 2 mg/g bw. In the Diapin and LLG group (square line or triangle line, n=9), glucose and Diapin or glucose and LLG were orally administered at dose of 2 mg/g bw and 1 mg/g bw, respectively. Blood glucose was measured at 0, 30, 60, 90 and 120 min after gavaging glucose and Diapin.
An experiment was performed in adult male C57BL/6J mice purchased from Jackson Lab. In the control group (diamond line in FIG. 14, n=10), glucose was orally administered at dose of 2 mg/g bw. […] Blood glucose was measured at 0, 30, 60, 90 and 120 min after gavaging glucose and GLG or GLL.
An experiment was performed in adult male C57BL/6J mice purchased from Jackson Lab. […] Blood glucose was measured at 0, 0.5, 1, 1.5 and 2 hours after gavaging glucose, Diapin and amidated Diapin.
An experiment was performed in adult male C57BL/6J mice purchased from Jackson Lab. […] Blood glucose was measured at 0, 0.5, 1, 1.5 and 2 hours after gavaging glucose, Diapin, and acetylated Diapin.
An experiment was performed in adult male C57BL/6J mice purchased from Jackson Lab. […] Blood glucose was measured at 0, 0.5, 1, 1.5 and 2 hours after gavaging glucose, Diapin and amidated/acetylated Diapin.
(§1) An experiment was performed in adult male C57BL/6J mice purchased from Jackson Lab. […] Blood glucose was measured at 30, 60, 90 and 120 min after giving glucose. […]
as §1

Leucine-Leucine-Glycine [LLG] was tested. Which “Blood glucose levels in mice loaded with glucose” value did it give?
The value was “significantly reduce blood glucose levels”.

With `NCC(=O)O` [glycine, reference compound] as the compound, how does the “Blood glucose levels compared to the control group” value (glycine 0.35 mg/g bw and glucose 2 mg/g bw by gavage, fasted mice, any time point (0, 30, 60, 90, 120 min)) read?
The value was “not significantly changed”.

Glycine-Leucine-Leucine [GLL] was tested. Which “Blood glucose levels in mice loaded with glucose” value did it give?
The value was “significantly reduce blood glucose levels”.
